Results as given in article PMC12259508, “Expediting multiple biological properties of main bioactive compounds of Mentha pulegium L” (AMB Express, 2025).
In brackets after ≈: the same amount, converted by molar mass. Where two headings read alike, the source gives them in different places. Each block holds one compound with its values, some of them ahead of it.

Legend:
elastase [1] = target: T1, elastase (Sus scrofa, UniProt P00772); set-up: method as in our previous study; conditions: ref our previous study, cited from earlier work
T1 sequence (P00772 27-266): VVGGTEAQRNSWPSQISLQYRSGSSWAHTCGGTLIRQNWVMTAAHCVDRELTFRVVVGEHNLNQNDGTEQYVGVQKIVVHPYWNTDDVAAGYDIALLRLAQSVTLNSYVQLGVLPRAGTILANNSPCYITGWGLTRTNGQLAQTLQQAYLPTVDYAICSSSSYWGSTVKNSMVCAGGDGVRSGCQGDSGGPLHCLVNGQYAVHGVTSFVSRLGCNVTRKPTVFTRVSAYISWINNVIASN

α-glucosidase = target: α-glucosidase; set-up: method as in Omari et al. [2023]; conditions: ref Omari et al. [2023]; cited from earlier work
α-amylase = target: α-amylase; set-up: method as in Omari et al. [2023]; conditions: ref Omari et al. [2023]; cited from earlier work
tyrosinase = tyrosinase (Agaricus bisporus, UniProt C7FF04); set-up: method as in our previous study; conditions: ref our previous study; cited from earlier work
Sequence of tyrosinase (C7FF04 1-392): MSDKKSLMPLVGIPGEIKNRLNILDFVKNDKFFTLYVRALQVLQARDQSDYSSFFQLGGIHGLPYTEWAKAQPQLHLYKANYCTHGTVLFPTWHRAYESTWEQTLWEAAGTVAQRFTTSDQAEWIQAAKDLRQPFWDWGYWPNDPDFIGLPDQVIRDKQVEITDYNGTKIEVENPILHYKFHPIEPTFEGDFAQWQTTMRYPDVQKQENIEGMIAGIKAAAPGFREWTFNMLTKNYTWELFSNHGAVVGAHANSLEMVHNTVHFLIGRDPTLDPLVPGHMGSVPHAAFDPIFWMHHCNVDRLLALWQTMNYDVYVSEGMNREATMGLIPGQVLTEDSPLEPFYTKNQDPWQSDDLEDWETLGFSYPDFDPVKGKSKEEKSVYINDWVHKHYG

[2] = target: T2, α-amylase from Bacillus licheniformis (Bacillus licheniformis, UniProt P06278); assay: α-Amylase inhibitory assay (starch/DNS); format: biochemical; conditions: mean ± SD, triplicate
T2 construct: purchased
T2 sequence (P06278 30-512): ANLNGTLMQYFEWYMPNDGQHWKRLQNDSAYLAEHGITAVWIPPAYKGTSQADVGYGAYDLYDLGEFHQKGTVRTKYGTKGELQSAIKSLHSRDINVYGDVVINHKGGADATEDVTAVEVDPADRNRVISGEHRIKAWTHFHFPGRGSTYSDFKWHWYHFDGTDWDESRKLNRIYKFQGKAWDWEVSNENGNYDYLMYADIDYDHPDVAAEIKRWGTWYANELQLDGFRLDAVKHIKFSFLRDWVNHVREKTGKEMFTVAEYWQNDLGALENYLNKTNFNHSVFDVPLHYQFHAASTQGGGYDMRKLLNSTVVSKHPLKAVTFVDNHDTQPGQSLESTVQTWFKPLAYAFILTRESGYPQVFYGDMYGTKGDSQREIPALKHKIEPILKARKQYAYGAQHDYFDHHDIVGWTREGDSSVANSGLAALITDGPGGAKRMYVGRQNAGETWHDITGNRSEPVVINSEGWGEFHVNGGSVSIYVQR
Description: (§1) The α-glucosidase from Saccharomyces cerevisiae and the α-amylase from Bacillus licheniformis were also obtained from reliable commercial sources. Additional reagents were carefully selected from reputable suppliers. Mueller–Hinton agar was sourced from Biokar in Beauvais, France. All other chemicals used are of analytical grade.
Specifically, 250μL of the sample was mixed with an equal volume of α-amylase (240 U/mL) in a 0.02 M sodium phosphate buffer (SPB) (pH = 6.9). The mixtures were incubated at 37 °C for twenty minutes. Subsequently, 250 µL of a 1% starch solution in a 0.02 M SPB (pH = 6.9) was added to the reaction mixture, and the combination was allowed to sit at 37 °C for 15 min. One milliliter of dinitrosalicylic acid (DNS) was then introduced, and the blend was brought to a boil in a water bath for ten minutes. The reaction mixture was subsequently diluted with 2 mL of distilled water, and the absorbance was measured at 540 nm using an ultraviolet–visible spectrophotometer.

[3] = test system: Escherichia coli ATCC 25922; assay: MIC and MBC determination, broth microdilution; format: cell-based; conditions: for MBC: ATCC25922, 24 h, read-out: MBC Escherichia coli
Description: (§2) As mentioned before, the minimum inhibitory concentration (MIC) was established using the broth microdilution method. The minimum sample concentration required to destroy the bacteria is indicated by the minimum bactericidal concentration (MBC). The microdilution method, based on MIC determination, was similarly applied. After 24 h of incubation at 37 °C, […] of sample from each tube showing no apparent growth were inoculated on Tryptone Soja agar (Biokar, Beauvais, France). The MBC was determined as the lowest concentration showing no growth on the culture medium.

[4] = test system: Listeria monocytogenes ATCC 13932; assay: MIC and MBC determination, broth microdilution; format: cell-based; conditions: for MBC / MIC: Listeria monocytogenes; for MBC: ATCC13932, 24 h; for MIC Listeria monocytogenes: broth microdilution
Description: as §2

[5] = test system: Staphylococcus aureus ATCC 29213; assay: MIC and MBC determination, broth microdilution; format: cell-based; conditions: for MBC / MIC: Staphylococcus aureus; for MBC: ATCC29213, 24 h; for MIC Staphylococcus aureus: broth microdilution
Description: as §2

[6] = test system: Pseudomonas aeruginosa ATCC 27853; assay: MIC and MBC determination, broth microdilution; format: cell-based; conditions: for MBC: ATCC27853, 24 h, read-out: MBC Pseudomonas aeruginosa
Description: as §2

[7] = test system: methicillin resistant Staphylococcus aureus (MRSA); set-up: method as in Zhao et al. [2023b]; conditions: ref Zhao et al. [2023b]; cited from earlier work
[8] = target: T3, α-glucosidase from Saccharomyces cerevisiae (Saccharomyces cerevisiae, UniProt P53341); assay: α-Glucosidase inhibitory assay (pNPG); format: biochemical; conditions: mean ± SD, triplicate
T3 construct: purchased
T3 sequence (P53341 whole entry): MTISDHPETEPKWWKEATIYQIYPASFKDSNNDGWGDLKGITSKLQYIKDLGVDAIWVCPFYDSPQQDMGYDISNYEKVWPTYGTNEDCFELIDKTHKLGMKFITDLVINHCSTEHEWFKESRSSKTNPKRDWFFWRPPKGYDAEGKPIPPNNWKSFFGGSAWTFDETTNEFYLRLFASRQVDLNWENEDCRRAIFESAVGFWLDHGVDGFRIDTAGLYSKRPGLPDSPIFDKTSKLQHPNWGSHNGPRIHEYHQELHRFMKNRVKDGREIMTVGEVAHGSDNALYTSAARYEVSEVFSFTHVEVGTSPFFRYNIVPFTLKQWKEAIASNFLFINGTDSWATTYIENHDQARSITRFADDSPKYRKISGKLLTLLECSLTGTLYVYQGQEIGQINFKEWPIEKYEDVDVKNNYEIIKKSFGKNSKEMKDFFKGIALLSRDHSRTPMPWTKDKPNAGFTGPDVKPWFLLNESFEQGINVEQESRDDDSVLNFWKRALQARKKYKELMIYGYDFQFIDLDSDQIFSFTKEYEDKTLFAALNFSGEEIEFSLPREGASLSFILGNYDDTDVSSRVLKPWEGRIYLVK
Description: as §1
Initially, 200 µL of the samples were mixed with 100 µL of 0.1 M SPB (pH = 6.7) containing 0.1 U/mL of α-glucosidase enzyme. The mixture was then incubated at 37 °C for ten minutes. One milligram of pNPG was dissolved in 0.1 ml of SPB (pH = 6.7). The activity of α-glucosidase was assessed by measuring the absorbance at 405 nm following the addition of 1 mL of 0.1 M Na2CO3 to the reaction mixture.

elastase [9] = target: T1, elastase; assay: Elastase inhibitory assay; format: biochemical
Description: By adapting certain aspects, the methodology of this research is based on the protocol reported by Jeddi et al. (Jeddi et al. [2023]).
Then, 200 µL of an elastase solution prepared in Tris–HCl buffer (0.2 M, pH 8.0) was mixed with 50 µL of each sample. Following a 15-min incubation at 25 °C, 200 µL of N-succinyl-Ala-Ala-p-nitroanilide solution was added, and the reaction mixtures were homogenized. Absorbances were recorded at 410 nm after an additional 20-min incubation at 25 °C. […] Furthermore, the methodology described in this study should provide a valuable resource for future research assessing the effect of other natural compounds on elastase activity, thereby expanding our understanding of their beneficial properties.

[10] = test system: Streptococcus equi subsp. equi; set-up: method as in Nozohour and Jalilzadeh-amin [2021]; conditions: ref Nozohour and Jalilzadeh-amin [2021]; cited from earlier work
E. coli K1 = test system: E. coli K1; set-up: method as in Gong et al. [2021]; conditions: ref Gong et al. [2021], cited from earlier work
S. epidermidis = test system: S. epidermidis; set-up: method as in Sonboli et al. ([2006]); conditions: ref Sonboli et al. ([2006]); cited from earlier work
S. aureus [11] = test system: S. aureus; set-up: method as in Sonboli et al. ([2006]); conditions: ref Sonboli et al. ([2006]); cited from earlier work
S. maltophilia = test system: S. maltophilia; set-up: method as in Baygar ([2019]); conditions: ref Baygar ([2019]); cited from earlier work
S. aureus [12] = test system: S. aureus; set-up: method as in Farhanghi et al. [2022]; conditions: ref Farhanghi et al. [2022]; cited from earlier work
[13] = test system: P. aeruginosa, S. aureus, and K. pneumoniae; set-up: method as in Amalich et al. [2016]; conditions: ref Amalich et al. [2016]; cited from earlier work
[14] = set-up: method as in Luís and Domingues [2021]; conditions: ref Luís and Domingues [2021]; cited from earlier work
[15] = ATCC25922, broth microdilution, read-out: MIC Escherichia coli
[16] = 24 h, 37 °C, read-out: MBC Listeria monocytogenes
[17] = ATCC13932, broth microdilution, read-out: MIC Listeria monocytogenes
[18] = 24 h, 37 °C, read-out: MBC Staphylococcus aureus
[19] = ATCC29213, broth microdilution, read-out: MIC Staphylococcus aureus
[20] = ATCC27853, broth microdilution, read-out: MIC Pseudomonas aeruginosa

Structure (SMILES): CC1=CCC2CC1C2(C)C (stereo not drawn) [α-pinene]
IC50 (elastase [1]; read-out: IC50 anti-elastase (converted)): 471 µM
IC50 α-glucosidase (α-glucosidase): 95.62 ± 4.11 µg/mL (≈ 702 µM)
IC50 α-amylase (α-amylase): 82.12 ± 4.52 µg/mL (≈ 603 µM)

Structure (SMILES): C=C(C)[C@H]1CC=C(C)CC1 [limonene]
IC50 anti-tyrosinase (tyrosinase): 74.24 ± 2.06 µg/mL (≈ 545 µM)
IC50 anti-elastase (elastase [1]): 91.25 ± 3.06 µg/mL (≈ 670 µM)

Structure (SMILES): CC(C)[C@@H]1CC[C@@H](C)CC1=O [Menthone, menthone]
IC50 [2]: 968 µM
MBC ([3]; 37 °C): > 2 µg/mL
MIC [3, 15]: 1 µg/mL (≈ 6.48 µM)
MBC Listeria monocytogenes ([4]; 24 h, 37 °C): 0.25 µg/mL (≈ 1.62 µM)
MBC [4, 16]: 0.125 to 0.25 µg/mL (≈ 0.81 to 1.62 µM)
MIC [4, 17]: 0.125 to 0.25 µg/mL (≈ 0.81 to 1.62 µM)
MIC Listeria monocytogenes [4]: 0.125 µg/mL (≈ 0.81 µM)
MBC Staphylococcus aureus ([5]; 24 h, 37 °C): 0.125 µg/mL (≈ 0.81 µM)
MBC [5, 18]: 0.125 to 0.25 µg/mL (≈ 0.81 to 1.62 µM)
MIC [5, 19]: 0.125 to 0.25 µg/mL (≈ 0.81 to 1.62 µM)
MIC Staphylococcus aureus [5]: 0.125 µg/mL (≈ 0.81 µM)
MBC ([6]; 37 °C): 1 µg/mL (≈ 6.48 µM)
MIC [6, 20]: 0.5 µg/mL (≈ 3.24 µM)
MBC MRSA [7]: 7.1 µg/mL (≈ 46 µM)
MIC MRSA [7]: 3.5 µg/mL (≈ 22.7 µM)
IC50 [8]: 703 µM
IC50 (elastase [9]): 860 µM

Structure (SMILES): CC(C)=C1CC[C@@H](C)CC1=O [Pulegone, pulegone]
inhibition zone Streptococcus equi subsp. equi [10]: 20 mm
reduced biofilm formation (E. coli K1; E. coli K1): 52.36%
MBC E. coli K1 (E. coli K1): 47350 µg/mL (≈ 311000 µM)
MIC E. coli K1 (E. coli K1): 23680 µg/mL (≈ 156000 µM)
activity against S. epidermidis (S. epidermidis): 1.8 ± 0.3 mg/mL
IC50 [2]: 1200 µM
MBC [3]: 0.5 µg/mL (≈ 3.28 µM)
MIC ([3]; ATCC25922, read-out: MIC Escherichia coli): 0.25 µg/mL (≈ 1.64 µM)
MBC Listeria monocytogenes ([4]; 24 h, 37 °C): 0.125 µg/mL (≈ 0.821 µM)
MBC ([4]; read-out: MBC Listeria monocytogenes, 24 h, 37 °C): 0.125 to 0.25 µg/mL (≈ 0.821 to 1.64 µM)
MIC ([4]; ATCC13932, read-out: MIC Listeria monocytogenes, broth microdilution): 0.125 to 0.25 µg/mL (≈ 0.821 to 1.64 µM)
MIC Listeria monocytogenes [4]: 0.125 µg/mL (≈ 0.821 µM)
MBC Staphylococcus aureus ([5]; 24 h, 37 °C): 0.25 µg/mL (≈ 1.64 µM)
MBC ([5]; read-out: MBC Staphylococcus aureus, 24 h, 37 °C): 0.125 to 0.25 µg/mL (≈ 0.821 to 1.64 µM)
MIC ([5]; ATCC29213, read-out: MIC Staphylococcus aureus, broth microdilution): 0.125 to 0.25 µg/mL (≈ 0.821 to 1.64 µM)
MIC Staphylococcus aureus [5]: 0.125 µg/mL (≈ 0.821 µM)
MBC [6]: 0.5 µg/mL (≈ 3.28 µM)
MIC ([6]; ATCC27853, read-out: MIC Pseudomonas aeruginosa): 0.5 µg/mL (≈ 3.28 µM)
IC50 [8]: 783 µM
activity against S. aureus (S. aureus [11]): 1.8 ± 0.3 mg/mL
MBC S. maltophilia (S. maltophilia): 5000 µg/mL (≈ 32800 µM)
MIC S. maltophilia (S. maltophilia): 2500 µg/mL (≈ 16400 µM)
inhibition zone S. maltophilia (S. maltophilia): 28 mm
MIC S. aureus (S. aureus [12]): 5.85 μl/mL
IC50 (elastase [9]): 774 µM
inhibitory effects on P. aeruginosa, S. aureus, and K. pneumoniae [13]: 2.80–11.20 µl/mL

Structure (SMILES): CC(=O)Oc1ccccc1C(=O)O [acetylsalicylic acid]
IC50 inhibition of protein denaturation [14]: 89.47 ± 2.64 %, v/v

MIC [3, 15]: 8 µg/mL (≈ 24.8 µM)
MIC [4, 17]: 16 µg/mL (≈ 49.5 µM)
MIC [5, 19]: 8 µg/mL (≈ 24.8 µM)
MIC [6, 20]: 64 µg/mL (≈ 198 µM)
Structure (SMILES): O=C(N[C@H](CO)[C@H](O)c1ccc([N+](=O)[O-])cc1)C(Cl)Cl [Chloramphenicol, reference compound]
MBC ([3]; 37 °C): 32 µg/mL (≈ 99 µM)
MBC [4, 16]: 32 µg/mL (≈ 99 µM)
MBC [5, 18]: 32 µg/mL (≈ 99 µM)
MBC ([6]; 37 °C): 64 µg/mL (≈ 198 µM)

Structure (SMILES): CC12CCC(CC1)C(C)(C)O2 [eucalyptol, reference compound]
MIC S. aureus (S. aureus [12]): 23.43 μl/mL
